Test results: the supplement of paper PMC10307832

Columns and labels:
Assay in all cases: relative viability (nuclei count vs DMSO), 5 days (fraction); higher = more cells survive
[1] = test system: A549
How it was run: (§1)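 Each reported value is a median over duplicate plates. It expresses relative viability: treated-well nuclei count divided by vehicle-well nuclei count. Lung cancer cell lines in 1536-well plates were dosed by pin tool a day after seeding, alone with one drug or with a fixed anchor-drug dose plus five library-drug doses (not always all listed) in √10 steps, and nuclei were counted after 5 days.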

[2] = test system: CAL-12T
How it was run: as §1

[3] = test system: Calu-6
How it was run: as §1

[4] = test system: EBC-1
How it was run: as §1

[5] = test system: IA-LM
How it was run: as §1

[6] = test system: NCI-H1299
How it was run: as §1

[7] = test system: NCI-H1703
How it was run: as §1

| SMILES | relative viability ([1]; first compound 0.04 µM) | relative viability ([1]; first compound 0.1265 µM) | relative viability ([1]; first compound 0.4 µM) | relative viability ([1]; first compound 1.265 µM) | relative viability ([1]; first compound 4 µM) | relative viability ([2]; first compound 0.04 µM) | relative viability ([2]; first compound 0.1265 µM) | relative viability ([2]; first compound 0.4 µM) | relative viability ([2]; first compound 1.265 µM) | relative viability ([2]; first compound 4 µM) | relative viability ([3]; first compound 0.04 µM) | relative viability ([3]; first compound 0.1265 µM) | relative viability ([3]; first compound 0.4 µM) | relative viability ([3]; first compound 1.265 µM) | relative viability ([3]; first compound 4 µM) | relative viability ([4]; first compound 0.04 µM) | relative viability ([4]; first compound 0.1265 µM) | relative viability ([4]; first compound 0.4 µM) | relative viability ([4]; first compound 1.265 µM) | relative viability ([4]; first compound 4 µM) | relative viability ([5]; first compound 0.04 µM) | relative viability ([5]; first compound 0.1265 µM) | relative viability ([5]; first compound 0.4 µM) | relative viability ([5]; first compound 1.265 µM) | relative viability ([5]; first compound 4 µM) | relative viability ([6]; first compound 0.04 µM) | relative viability ([6]; first compound 0.1265 µM) | relative viability ([6]; first compound 0.4 µM) | relative viability ([6]; first compound 1.265 µM) | relative viability ([6]; first compound 4 µM) | relative viability ([7]; first compound 0.04 µM) | relative viability ([7]; first compound 0.1265 µM) | relative viability ([7]; first compound 0.4 µM) | relative viability ([7]; first compound 1.265 µM) | relative viability ([7]; first compound 4 µM) |
| --- | --- | --- | --- | --- | --- | --- | --- | --- | --- | --- | --- | --- | --- | --- | --- | --- | --- | --- | --- | --- | --- | --- | --- | --- | --- | --- | --- | --- | --- | --- | --- | --- | --- | --- | --- |
| Clc1ccc(Nc2nnc(Cc3ccncc3)c3ccccc23)cc1 [Vatalanib] + C[C@@H](Oc1cc(-c2cnn(C3CCNCC3)c2)cnc1N)c1c(Cl)ccc(F)c1Cl [Crizotinib] (partner 1 µM) | 0.857 | 0.843 | 0.907 | 0.597 | 0.713 | 0.651 | 0.523 | 0.686 | 0.446 | 0.746 | 0.756 | 0.662 | 0.779 | 0.779 | 0.643 | 0.218 | 0.178 | 0.176 | 0.191 | 0.21 | 0.649 | 0.875 | 0.724 | 0.743 | 0.721 | 0.956 | 0.96 | 0.957 | 0.964 | 0.965 | 0.669 | 0.77 | 0.866 | 0.524 | 0.303 |
| C[C@@H]1CN(CC(=O)Nc2ccc3c(c2)Cc2cccc(-c4cc(=O)cc(N5CCOCC5)o4)c2S3)C[C@H](C)O1 + Cc1nc(NC(=O)N2CCC[C@H]2C(N)=O)sc1-c1ccnc(C(C)(C)C(F)(F)F)c1 [Alpelisib] (partner 2 µM) | 0.776 | 0.753 | 0.826 | – | 0.457 | 1.33 | 1.37 | 1.19 | – | 0.841 | 1.03 | 1.03 | 0.97 | – | 0.79 | 0.905 | 0.826 | 0.386 | – | 0.506 | 0.884 | 0.801 | 0.895 | – | 0.387 | 1.02 | 1.05 | 1.05 | – | 1.02 | 0.426 | 0.33 | 0.299 | – | 0.277 |
| C[C@@H]1CN(CC(=O)Nc2ccc3c(c2)Cc2cccc(-c4cc(=O)cc(N5CCOCC5)o4)c2S3)C[C@H](C)O1 + CC1(C)CCC(c2ccc(Cl)cc2)=C(CN2CCN(c3ccc(C(=O)NS(=O)(=O)c4ccc(N[C@H](CCN5CCOCC5)CSc5ccccc5)c(S(=O)(=O)C(F)(F)F)c4)cc3)CC2)C1 [Navitoclax] (partner 0.5 µM) | 1.3 | 1.2 | 1.23 | – | 0.912 | 1.42 | 1.11 | 1.07 | – | 0.652 | 0.871 | 0.831 | 0.889 | – | 0.54 | 0.405 | 0.432 | 0.287 | – | 0.216 | 0.759 | 0.787 | 0.669 | – | 0.317 | 1.03 | 1.04 | 1.01 | – | 0.941 | 1.42 | 1.45 | 0.911 | – | 0.808 |
